Measurements reported in patent publication US20070105789A1, “Combinatorial chemotherapy treatment using Na+/K+ ATPase inhibitors” (priority 2004, published 2007).
Where two headings read alike, the source gives them in different places.

Legend:
[1] = target: T1, Na+/K+-ATPase (Canis lupus familiaris, UniProt P50997); assay: Na+/K+-ATPase inhibition; format: biochemical, dog
T1 construct: enzyme preparation from dog kidney (Sigma); purchased Sigma; host or cells: dog kidney tissue
Procedure: (§1) Anti-prolerafitive IC50 values were determined by MTS assay using an A549 cell line. Na^+/K^+-ATPase inhibition IC50 values were obtained using enzyme preparation from dog kidney (Sigma).

[2] = test system: A549 cell line; assay: anti-proliferation MTS assay in A549 cell line; format: cell-based; details: Homo sapiens
Procedure: as §1

[3] = test system: A549 Sentinel Line; assay: Sentinel Line reporter assay (beta-gal, FACS); format: cell-based, human; details: agent alone, 40 hrs, FACS
Procedure: The expression level of beta-galactosidase gene in sentinel lines was determined by using a fluorescent substrate fluorescein di-B-D-Galactopyranside (FDG, Marker Gene Tech, #M0250) introduced into cells by hypotonic shock. Cleavage by beta-galactosidase results in the production of free fluorescein, which is unable to cross the plasma membrane and is trapped inside the beta-gal positive cells. Briefly, the cells to be analyzed are trypsinized, and resuspended in PBS containing 2 mM FDG (diluted from a 10 mM stock prepared in 8:1:1 mixture of water: ethanol: DMSO). The cells were then shocked for 4 minutes at 37° C. and transferred to FACS tubes containing cold 1×PBS on ice. Samples were kept on ice for 30 minutes and analyzed by FACS in FLI channel.
Sentinel Line cells with beta-galactosidase reporter gene were plated at 1×10^5 cells/10 cm dish. […] After 40 hrs, the cells were trypsinized and the expression level of reporter gene was determined by FDG loading.
The reporter activity was measured by FACS analysis.

[4] = test system: A549 human non-small-cell-lung carcinoma; assay: A549 human non-small-cell-lung carcinoma xenograft in nude mice; details: for % TGI: A549, Day 38; for Final Tumor weight Day 38 (Mean): A549, tumor weight in mg; for Final Tumor weight Day 38 (Mean) / % Weight Change at Day 38: BNC-1 20 mg/ml s.c. pump, Carboplatin 100 mg/kg ip; for % Weight Change at Day 38: A549 xenograft mice; for signs of tumor at the end of the experiment: A549 xenograft, 8 animals per group
Description: (§2) Female nude mice (nu/nu) between 5 and 6 weeks of age weighing approximately 20 g were implanted subcutaneously (s.c.) by trocar with fragments of human tumors harvested from s.c. grown tumors in nude mice hosts. […] Each group contains 8-10 mice, each of which was ear tagged and followed throughout the experiment.
(§3) The administration of drugs or controls began the day the animals were pair-matched (Day 1). […] Mice were weighed and tumor measurements were obtained using calipers twice weekly, starting Day 1. These tumor measurements were converted to mg tumor weight by standard formula, (W^2×L)/2. The experiment is terminated when the control group tumor size reached an average of about 1 gram. Upon termination, the mice were weighed, sacrificed and their tumors excised. The tumors were weighed and the mean tumor weight per group was calculated.
Carboplatin (qldxl) was injected at 100 mg/kg (Carb).

[5] = test system: Panc-1 human pancreatic xenograft; assay: Panc-1 human pancreatic tumor xenograft in nude mice; format: in vivo; details: for Final Tumor weight Day 25 (Mean): BNC-1 20 mg/ml s.c. osmotic pump, tumor weight in mg
Description: as §2, §3
(§4) The control animals received pumps containing vehicle (50% DMSO in DMEM). The mice treated with standard chemotherapy agent received intra-peritoneal injections of Gemcitabine at 40 mg/kg every 3 days for 4 treatments (q3d×4). Each data point represent average tumor weight (n=8) and error bars indicate SEM.
as §4

[6] = test system: rats; details: adult; cited from earlier work
[7] = test system: HIF-1α; assay: Western blot using anti-HIF-1α antibody (Example XVI); format: cell-based; details: 1 μM
[8] = test system: Na+/K+-ATPase; details: Erdmann E 1978; cited from earlier work
[9] = test system: panel of 10 cancer cell lines; assay: cytotoxicity against a panel of 10 cancer cell lines; format: cell-based; details: read-out: median IC50
[10] = cited from earlier work
[11] = test system: Caki-1 human renal cancer xenograft; format: in vivo, nude mice; details: for % TGI: Caki-1, Day 22; for % TGI / Final Tumor weight Day 22 (Mean): BNC-1 20 mg/ml s.c. pump, Cytoxan 300 or 100 ip; for Final Tumor weight Day 22 (Mean): tumor weight in mg
Description: as §2, §3

[12] = test system: VEGF; assay: VEGF secretion in tumor cells; format: cell-based; details: FIG. 8
[13] = test system: A549(ROS) Sentinel Line; assay: ROS levels by FACS in A549(ROS) cells; format: cell-based, human; details: normoxia, 4 hrs
Procedure: Thirty minutes prior to the termination of incubation period, 2,7-dichlorofluorescin diacetate (CFH-DA, […]) was added to the cells and incubated for the last 30 min at 37° C. The ROS levels were determined by FACS analysis.

[14] = test system: cats; details: cited from earlier work
[15] = human pharmacokinetics (literature); details: species not stated
[16] = target: Na+/K+-ATPase α peptide isoforms; details: read-out: Kd of ouabain for the four α peptide isoforms; almost all mammalian species; cited from earlier work
[17] = test system: several different cancer cell lines; assay: proliferation of cancer cell lines (ouabain IC50); format: cell-based; details: read-out: IC50 across several different cancer cell lines
[18] = Panc-1, Gemcitabine 40 mg/kg q3d×4

## CC(=O)OC1C=C2CCC3C4=CC[C@H](c5ccc(=O)oc5)[C@@]4(C)CCC3[C@@]2(C)CC1 (some centres unmarked) [BNC-147]
[1]
  IC50: 65 µM
[2]
  IC50: 11.5 µM

## N.N.O=C([O-])C1(C(=O)[O-])CCC1.[Pt+2] [Carboplatin]
[3]
  reporter activity in Sentinel Lines: increases in cell death and reporter activity
[4]
  % TGI: 39.50%
  Final Tumor weight Day 38 (Mean): 509.75
  % Weight Change at Day 38: 16%
  signs of tumor at the end of the experiment: developed tumors of significant sizes

## COc1cc2ncnc(Nc3ccc(F)c(Cl)c3)c2cc1OCCCN1CCOCC1 [Iressa]
[3]
  reporter activity in Sentinel Lines: reduction in reporter activity

## Nc1ccn([C@@H]2O[C@H](CO)[C@@H](O)C2(F)F)c(=O)n1 [Gemcitabine, gemcitabine]
[3]
  reporter activity in Sentinel Lines: elevated reporter activity
[5]; [18]
  Final Tumor weight Day 25 (Mean): 701.3
[5]; Panc-1, BNC-4 15 mg/ml s.c. pump, Gemcitabine 40 mg/kg q3d×4
  TGI: 65%
[5]; mouse, in vivo
  % TGI: 37.40%

## CC(=O)O[C@H]1C(=O)[C@@]2(C)[C@H]([C@H](OC(=O)c3ccccc3)[C@]3(O)C[C@H](OC(=O)[C@H](O)[C@@H](NC(=O)c4ccccc4)c4ccccc4)C(C)=C1C3(C)C)[C@]1(OC(C)=O)CO[C@@H]1C[C@@H]2O [paclitaxel]
[3]
  reporter activity in Sentinel Lines: increases in cell death and reporter activity

## C[C@H]1O[C@@H](O[C@H]2[C@@H](O)C[C@H](O[C@H]3[C@@H](O)C[C@H](O[C@H]4CC[C@@]5(C)[C@H](CC[C@@H]6[C@@H]5CC[C@]5(C)[C@@H](C7=CC(=O)OC7)CC[C@]65O)C4)O[C@@H]3C)O[C@@H]2C)C[C@H](O)[C@@H]1O [Digitoxin]
[6]
  LD50 p.o.: 0.1 mg/kg

## C[C@@H]1OC(OC2C=C3CCC4C5=CC[C@H](c6ccc(=O)oc6)[C@@]5(C)CCC4[C@@]3(C)CC2)[C@H](O)[C@H](O)[C@H]1O (some centres unmarked) [BNC-151]
[7]
  HIF-1α expression: Significant inhibition
[1]
  IC50: 1.38 µM
[2]
  IC50: 0.26 µM

## C[C@H]1O[C@@H](O[C@H]2[C@@H](O)C[C@H](O[C@H]3[C@@H](O)C[C@H](O[C@H]4CC[C@@]5(C)[C@H](CC[C@@H]6[C@@H]5C[C@@H](O)[C@]5(C)[C@@H](C7=CC(=O)OC7)CC[C@]65O)C4)O[C@@H]3C)O[C@@H]2C)C[C@H](O)[C@@H]1O [Digoxin]
[8]
  order of Na+/K+-ATPase-inhibition: Ouabain<Digoxin<Proscillaridin
[9]
  IC50: 0.037 µM
[10]; in vivo
  Volume-of-Distribution (VD): 650 L

## O=P1(N(CCCl)CCCl)NCCCO1 (centres unmarked) [Cytoxan]
[11]
  % TGI: 94.48%
[11]; listed as Cytoxan100
  % TGI: 54.70%
[11]; Caki-1
  Final Tumor weight Day 22 (Mean): 93.7
[11]; Caki-1, listed as Cytoxan100
  Final Tumor weight Day 22 (Mean): 769
[11]; Caki-1, Cytoxan 100 mg/kg alone, positive control
  TGI: 92%

## C[C@@H]1O[C@@H](O[C@H]2C[C@@H](O)[C@]3(CO)[C@H]4[C@H](O)C[C@]5(C)[C@@H](C6=CC(=O)OC6)CC[C@]5(O)[C@@H]4CC[C@]3(O)C2)[C@H](O)[C@H](O)[C@H]1O [BNC-1, ouabain]
mice
  toxic serum concentration at day 1 (serum level at MTD): about 50±21 ng/ml
Steady state, xenograft nude mouse
  therapeutic serum concentration required to achieve >60% TGI: about 20±15 ng/ml
[12]
  secretion of VEGF in tumor cells: directly or indirectly inhibits
[13]
  ROS production: induces ROS production
[14]
  intravenous toxicity: 0.133 mg/kg
  toxicity on duodenal administration: 5.3 mg/kg
[8]
  order of Na+/K+-ATPase-inhibition: Ouabain<Digoxin<Proscillaridin
[9]
  IC50: 0.078 µM
[5]; Panc-1, Day 25, BNC-1 20 mg/ml s.c. pump, Gemcitabine 40 mg/kg q3d×4
  % TGI: 82.15%
[5]; [18]
  Final Tumor weight Day 25 (Mean): 200
[15]
  max. plasma concentration: about 0.03 μg/mL
[10]; according to the literature
  plasma half-life in human: about 20 hours
  plasma half-life in human, range: 5 to 50 h
[16]
  Kd: ≤ 0.001 µM
[11]
  % TGI: 81.45%
[11]; Caki-1
  Final Tumor weight Day 22 (Mean): 314.9
[17]
  IC50: 0.015 to 0.6 µM
[4]
  % TGI: 100.00%
  Final Tumor weight Day 38 (Mean): 0.0
  % Weight Change at Day 38: 21%
  signs of tumor at the end of the experiment: none of the experimental animals showed any signs of tumor

## O=C1c2c(O)ccc(O)c2C(=O)c2c(NCCNCCO)ccc(NCCNCCO)c21 [mitoxanthrone, mitoxantrone]
[3]
  reporter activity in Sentinel Lines: increases in cell death and reporter activity
